From BindingDB's records for patent US20250352549 (Avelos Therapeutics, 2025)

target: T1, Serine/threonine-protein kinase greatwall (Human, UniProt Q96GX5); assay: MASTL Activity Assay
T1 sequence (Q96GX5 whole entry): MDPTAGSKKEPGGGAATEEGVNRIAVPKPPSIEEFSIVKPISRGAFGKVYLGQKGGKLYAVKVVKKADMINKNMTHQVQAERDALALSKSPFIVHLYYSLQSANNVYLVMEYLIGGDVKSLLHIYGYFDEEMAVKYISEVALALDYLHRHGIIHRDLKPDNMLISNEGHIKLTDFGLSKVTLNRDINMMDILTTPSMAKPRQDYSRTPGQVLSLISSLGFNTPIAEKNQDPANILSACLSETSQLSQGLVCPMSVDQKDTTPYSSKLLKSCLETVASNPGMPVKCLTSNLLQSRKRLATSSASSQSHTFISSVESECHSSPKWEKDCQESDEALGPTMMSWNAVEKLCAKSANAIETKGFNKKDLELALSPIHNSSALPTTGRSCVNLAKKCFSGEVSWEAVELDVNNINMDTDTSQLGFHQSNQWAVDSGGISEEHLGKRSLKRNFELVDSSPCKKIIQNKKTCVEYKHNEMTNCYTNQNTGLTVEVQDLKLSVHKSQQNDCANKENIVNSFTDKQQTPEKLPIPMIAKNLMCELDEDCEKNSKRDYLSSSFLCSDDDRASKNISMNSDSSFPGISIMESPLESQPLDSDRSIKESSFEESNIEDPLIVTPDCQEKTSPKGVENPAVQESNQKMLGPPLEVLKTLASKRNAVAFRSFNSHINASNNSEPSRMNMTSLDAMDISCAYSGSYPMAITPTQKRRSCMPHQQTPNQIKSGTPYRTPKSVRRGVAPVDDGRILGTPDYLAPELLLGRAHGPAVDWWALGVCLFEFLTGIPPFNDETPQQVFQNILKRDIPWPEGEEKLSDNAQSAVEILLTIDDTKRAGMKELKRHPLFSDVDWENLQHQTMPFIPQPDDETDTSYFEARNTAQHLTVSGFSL
Protocol: Wild-type human active MASTL (154 pM) was incubated in assay buffer (50 mM HEPES, 100 mM NaCl, 0.1 mM EGTA, 10 mM MgCl2, 0.01% Tween-20, 0.5 mM TCEP, pH 7.5) with biotin tagged 40-mer ENSA peptide (10 nM), test compound and ATP (18 μM) for 60 minutes at room temperature. Test compounds were assayed using a 12-point dose range consisting of a 0, DMSO control and 10 sequential doses consisting from 0.0005, 0.002, 0.005, 0.014, 0.04, 0.12, 0.37, 1.11, 3.33 and 10 μM. The DMSO concentration was the same (1%) in all samples. An equal volume of detection buffer (assay buffer+267.5 pM Ab-K, 1.25 nM SA-D2, 20 mM EDTA and 400 mM KF) was added to stop the reaction to make a final volume of 20 μl, RT for 60 mins. Activity was measured using a plate reader (PerkinElmer EnSight) by the FRET signal generated between SA-D2 (streptavidin-D2) and Ab-K (anti-phospho-Serine 67 ENSA antibody (rabbit polyclonal, using standard techniques by a commercial supplier) conjugated to Cryptate). HTRF reagents (CisBio) were prepared as per the manufacturer recommendations. The 40-mer biotin-tagged ENSA peptide (synthesised by Bionics) used was based around Serine 67 on ENSA ([…]).

Row | SMILES | IC50
1 | Cc1ncc2ncc(-c3nc(N)nc(NC(C)(C)c4ccn(C(F)F)n4)n3)cn12 [US20250352549, Example 1] | < 500 nM
2 | Cc1ncc2ccc(-c3nc(N)nc(NC(c4ccccc4)c4c[nH]c(C(F)(F)F)n4)n3)cn12 (configuration not stated) [US20250352549, Example 2] | > 1000 nM
3 | COC(=O)C(Cc1cccc(Cl)c1Cl)Nc1cc(-c2ccc3cnc(C)n3c2)nc(N)n1 (configuration not stated) [US20250352549, Example 3] | < 500 nM
4 | COC(=O)C(Cc1cccc(Cl)c1Cl)Nc1nc(N)nc(-c2ccc3cnc(C)n3c2)n1 (configuration not stated) [US20250352549, Example 4] | < 500 nM
5 | [2H]C([2H])([2H])Nc1nc(NC(CC)c2c[nH]c(C(F)(F)F)n2)nc(-c2ccc3cnc(C)n3c2)n1 (configuration not stated) [US20250352549, Example 5] | < 500 nM
6 | CCC(Nc1nc(N)nc(-c2ccc3[nH]ncc3c2)n1)c1c[nH]c(C(F)(F)F)n1 (configuration not stated) [US20250352549, Example 8] | < 500 nM
7 | [2H]C([2H])([2H])n1ncc2ccc(-c3nc(N)nc(NC(C)(C)c4ccn(C(F)F)n4)n3)cc21 [US20250352549, Example 9] | < 500 nM
8 | CC(C)(Nc1nc(N)nc(-c2ccc3cnc(N)n3c2)n1)c1ccn(C(F)F)n1 [US20250352549, Example 10] | < 500 nM
9 | CC(C)(Nc1nc(N)nc(-c2ccc3cnc(N)n3c2)n1)c1c[nH]c(C(F)(F)F)n1 [US20250352549, Example 11] | < 500 nM
10 | Cc1ncc2ccc(-c3nc(C#N)nc(NC(C)(C)c4ccn(C(F)F)n4)n3)cn12 [US20250352549, Example 12] | > 1000 nM
11 | Cc1ncc2ncc(-c3nc(N)nc(NC(C)(C)c4ccn(C(F)F)n4)n3)cn12 [US20250352549, Example 13] | > 1000 nM
12 | Cc1ncc2ccc(-c3nc(C#N)nc(NC(Cc4cccc(Cl)c4Cl)C(=O)O)n3)cn12 (configuration not stated) [US20250352549, Example 15] | > 1000 nM
13 | Cc1ncc2ccc(-c3cc(NCC(N)c4cccc(Cl)c4Cl)nc(N)n3)cn12 (configuration not stated) [US20250352549, Example 16] | < 500 nM
14 | CNC(CNc1cc(-c2ccc3cnc(C)n3c2)nc(N)n1)c1cccc(Cl)c1Cl (configuration not stated) [US20250352549, Example 17] | < 500 nM
15 | CC(=O)NC(CNc1cc(-c2ccc3cnc(C)n3c2)nc(N)n1)c1cccc(Cl)c1Cl (configuration not stated) [US20250352549, Example 18] | < 500 nM
16 | CC(=O)N(C)C(CNc1cc(-c2ccc3cnc(C)n3c2)nc(N)n1)c1cccc(Cl)c1Cl (configuration not stated) [US20250352549, Example 19] | < 500 nM
17 | CONC(=O)C(Cc1cccc(Cl)c1Cl)Nc1nc(N)nc(-c2ccc3cnc(C)n3c2)n1 (configuration not stated) [US20250352549, Example 20] | < 500 nM
18 | Cc1ncc2ccc(-c3nc(N)nc(NC(Cc4cccc(Cl)c4Cl)c4nnn[nH]4)n3)cn12 (configuration not stated) [US20250352549, Example 21] | < 500 nM
19 | Cc1ncc2ccc(-c3nc(N)nc(NC(Cc4cccc(Cl)c4Cl)c4nc[nH]n4)n3)cn12 (configuration not stated) [US20250352549, Example 22] | < 500 nM
20 | Cc1ncc2ccc(-c3nc(N)nc(NC(Cc4cccc(Cl)c4Cl)c4ncno4)n3)cn12 (configuration not stated) [US20250352549, Example 23] | > 1000 nM
21 | CC(C)C(Nc1nc(N)nc(-c2ccc3[nH]ncc3c2)n1)c1c[nH]c(C(F)(F)F)n1 (configuration not stated) [US20250352549, Example 24] | < 500 nM
22 | CNc1nc(NC(C)(C)c2ccn(C(F)F)n2)nc(-c2ccc3[nH]ncc3c2)n1 [US20250352549, Example 26] | < 500 nM

Continued, values first:

Row | IC50 | SMILES
23 | < 500 nM | CNc1nc(NC(c2ccn(C(F)F)n2)C(C)C)nc(-c2ccc3[nH]ncc3c2)n1 (configuration not stated) [US20250352549, Example 27]
24 | < 500 nM | [2H]C([2H])([2H])n1ncc2ccc(-c3nc(N)nc(NC(c4c[nH]c(C(F)(F)F)n4)C(C)C)n3)cc21 (configuration not stated) [US20250352549, Example 28]
25 | < 500 nM | [2H]C([2H])([2H])Nc1nc(NC(C)(C)c2ccn(C(F)F)n2)nc(-c2ccc3cnc(N)n3c2)n1 [US20250352549, Example 30]
26 | < 500 nM | [2H]C([2H])([2H])Nc1nc(NC(c2c[nH]c(C(F)(F)F)n2)C(C)C)nc(-c2ccc3cnn(C)c3c2)n1 (configuration not stated) [US20250352549, Example 31]
27 | < 500 nM | Nc1nc(NC(c2c[nH]c(C(F)(F)F)n2)C2CC2)nc(-c2ccc3[nH]ncc3c2)n1 (configuration not stated) [US20250352549, Example 32]
28 | < 500 nM | Nc1nc(NC(c2ccn(C(F)F)n2)C2CC2)nc(-c2ccc3[nH]ncc3c2)n1 (configuration not stated) [US20250352549, Example 33]
29 | < 500 nM | CC(C)C(Nc1nc(N)nc(-c2ccc3c(cnn3C)c2)n1)c1c[nH]c(C(F)(F)F)n1 (configuration not stated) [US20250352549, Example 34]
30 | < 500 nM | Cc1n[nH]c2ccc(-c3nc(N)nc(NC(c4c[nH]c(C(F)(F)F)n4)C(C)C)n3)cc12 (configuration not stated) [US20250352549, Example 35]
31 | < 500 nM | [2H]C([2H])([2H])n1ncc2ccc(-c3nc(N)nc(NC(C)(C)Cc4cccc(F)n4)n3)cc21 [US20250352549, Example 36]
32 | < 500 nM | CNc1ncc2ccc(-c3nc(N)nc(NC(C)(C)c4ccn(C(F)F)n4)n3)cn12 [US20250352549, Example 37]
33 | > 1000 nM | CC(C)(Nc1nc(N)nc(-c2ccc3cnc(O)n3c2)n1)c1ccn(C(F)F)n1 [US20250352549, Example 38]
34 | < 500 nM | [2H]C([2H])([2H])n1ncc2ccc(-c3cc(NC(C)(C)Cn4ccc(C(F)(F)F)n4)nc(N)n3)cc21 [US20250352549, Example 40]
35 | < 500 nM | CC(C)(Cc1cccc(Cl)c1Cl)Nc1nc(N)nc(-c2ccc3cnc(N)n3c2)n1 [US20250352549, Example 41]
36 | < 500 nM | Nc1nc(NCCc2ccc(Cl)c(F)c2F)nc(-c2ccc3cnc(N)n3c2)n1 [US20250352549, Example 42]
37 | in the range around 750 nM | CC(C)CC(Nc1nc(N)nc(-c2ccc3[nH]ncc3c2)n1)c1c[nH]c(C(F)(F)F)n1 (configuration not stated) [US20250352549, Example 43]
38 | < 500 nM | Cc1nn(C)c2cc(-c3nc(N)nc(NC(c4c[nH]c(C(F)(F)F)n4)C(C)C)n3)ccc12 (configuration not stated) [US20250352549, Example 44]
39 | < 500 nM | CC(C)C(Nc1nc(N)nc(-c2ccc3c(F)nn(C)c3c2)n1)c1c[nH]c(C(F)(F)F)n1 (configuration not stated) [US20250352549, Example 45]
40 | < 500 nM | Cn1ncc2cc(-c3nc(N)nc(NC(C)(C)c4c[nH]c(C(F)(F)F)n4)n3)ccc21 [US20250352549, Example 46]
41 | < 500 nM | Cn1ncc2cc(-c3nc(N)nc(NC(C)(C)c4ccn(C(F)F)n4)n3)ccc21 [US20250352549, Example 48]
42 | < 500 nM | CNc1nc(NC(C)(C)c2ccn(C(F)F)n2)nc(-c2ccc3cnc(C)n3c2)n1 [US20250352549, Example 135]
43 | < 500 nM | CNc1nc(NC(Cc2cccc(Cl)c2Cl)C(=O)O)nc(-c2ccc3cnc(C)n3c2)n1 (configuration not stated) [US20250352549, Example 138]
44 | < 500 nM | Cc1ncc2ccc(-c3nc(N)nc(NC(C)c4ccc(F)cn4)n3)cn12 (configuration not stated) [US20250352549, Example 139]
45 | < 500 nM | CCC(Nc1nc(N)nc(-c2ccc3cnc(C)n3c2)n1)c1ccc(F)cn1 (configuration not stated) [US20250352549, Example 140]
46 | < 500 nM | Cc1ncc2ccc(-c3cc(NC(Cc4cccc(F)c4F)C(=O)O)nc(N)n3)cn12 (configuration not stated) [US20250352549, Example 144]
47 | < 500 nM | CNc1nc(NC(Cc2cccc(Cl)c2Cl)C(=O)O)cc(-c2ccc3cnc(C)n3c2)n1 (configuration not stated) [US20250352549, Example 145]
48 | < 500 nM | Cc1nc(F)c2ccc(-c3nc(N)nc(NC(c4c[nH]c(C(F)(F)F)n4)C(C)C)n3)cn12 (configuration not stated) [US20250352549, Example 147]
49 | < 500 nM | Cc1ncc2ccc(-c3cc(NC(Cc4cccc(Cl)c4Cl)C(N)=O)nc(N)n3)cn12 (configuration not stated) [US20250352549, Example 148]
50 | < 500 nM | Cc1ncc2ccc(-c3cc(NC(c4c[nH]c(C(F)(F)F)n4)C(C)C)nc(N)n3)cn12 (configuration not stated) [US20250352549, Example 150]
51 | < 500 nM | Cc1ncc2ccc(-c3nc(N)nc(NCc4c[nH]c(C(F)(F)F)n4)n3)cn12 [US20250352549, Example 151]
52 | < 500 nM | Cc1ncc2ccc(-c3nc(N)nc(NC(c4c[nH]c(C(F)(F)F)n4)C4CC4)n3)cn12 (configuration not stated) [US20250352549, Example 154]
